Data set [1] can be described thus: Microsomal stability, human. The class given is in vitro ADME. The conditions noted are these: after 60 min, pooled human microsomes, NADPH, 37 °C.
Another data set has as its target T1, murine sEH (Mus musculus, UniProt P34914).
T1 sequence (P34914 1-554): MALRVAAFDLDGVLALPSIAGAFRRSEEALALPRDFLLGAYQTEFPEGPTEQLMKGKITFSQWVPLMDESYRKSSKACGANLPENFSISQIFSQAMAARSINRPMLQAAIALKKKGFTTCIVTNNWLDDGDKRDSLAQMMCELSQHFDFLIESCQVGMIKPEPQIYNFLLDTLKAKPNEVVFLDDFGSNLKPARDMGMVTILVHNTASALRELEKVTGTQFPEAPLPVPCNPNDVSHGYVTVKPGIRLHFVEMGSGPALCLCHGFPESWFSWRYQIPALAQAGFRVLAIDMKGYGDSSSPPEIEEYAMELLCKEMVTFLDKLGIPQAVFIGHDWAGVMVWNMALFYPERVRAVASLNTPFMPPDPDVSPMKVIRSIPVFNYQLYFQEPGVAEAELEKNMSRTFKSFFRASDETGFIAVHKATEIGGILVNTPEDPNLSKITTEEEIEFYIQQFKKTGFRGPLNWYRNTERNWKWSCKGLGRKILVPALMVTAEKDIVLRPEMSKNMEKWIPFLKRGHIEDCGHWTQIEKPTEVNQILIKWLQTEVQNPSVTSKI
Nature of the data set: Enzymatic sEH activity assay. The class given is biochemical.

For the next data set, the target named is CYP3A4 (Homo sapiens, UniProt P08684). Nature of the data set: Cytochrome P450 inhibition assay, CYP3A4. The format is biochemical. Conditions: probe dibenzylfluorescein (DBF).
The next data set deals with CYP2C9 (Homo sapiens, UniProt P11712). The experiment in a line: Cytochrome P450 inhibition assay, CYP2C9. The class given is biochemical. The conditions noted are these: probe 7-methoxy-4-(trifluoromethyl)coumarin.
Data set [2] is described as follows: Microsomal stability, mouse. The class given is in vitro ADME. Conditions: after 60 min, pooled mouse microsomes, NADPH, 37 °C.
For data set [3] the following is noted: predicted BBB permeation class.
In the next data set the target is CYP2D6 (Homo sapiens, UniProt P10635). The experiment in a line: Cytochrome P450 inhibition assay, CYP2D6. The format is biochemical.
A further data set has as its target T2, human sEH (Homo sapiens, UniProt P34913).
T2 sequence (P34913 1-555): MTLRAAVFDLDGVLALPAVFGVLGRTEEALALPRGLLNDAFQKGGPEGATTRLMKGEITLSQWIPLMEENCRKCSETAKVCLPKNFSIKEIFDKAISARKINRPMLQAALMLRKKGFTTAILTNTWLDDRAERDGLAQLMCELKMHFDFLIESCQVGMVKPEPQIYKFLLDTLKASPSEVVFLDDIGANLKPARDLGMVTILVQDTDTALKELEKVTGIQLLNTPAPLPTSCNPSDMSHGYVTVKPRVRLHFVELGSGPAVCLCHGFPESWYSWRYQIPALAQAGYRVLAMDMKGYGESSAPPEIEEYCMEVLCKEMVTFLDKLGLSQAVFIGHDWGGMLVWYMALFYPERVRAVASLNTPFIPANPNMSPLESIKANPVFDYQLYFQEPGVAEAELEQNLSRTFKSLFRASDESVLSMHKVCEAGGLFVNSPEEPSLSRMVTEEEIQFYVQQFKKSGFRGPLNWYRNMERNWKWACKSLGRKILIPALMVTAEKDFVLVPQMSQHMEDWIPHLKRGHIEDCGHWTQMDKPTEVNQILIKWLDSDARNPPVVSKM
The experiment in a line: Enzymatic sEH activity assay. The format is biochemical.

A further data set concerns the target hERG (Homo sapiens, UniProt Q12809). The experiment in a line: hERG inhibition assay. The class given is cell-based. The conditions noted are these: CHO cells transfected with hERG (CHO hERG-Duo cell line). For orientation: hERG is a cardiac potassium channel; its block is linked to QT prolongation.
Another data set concerns SH-SY5Y cells. Nature of the data set: Cytotoxicity in SH-SY5Y cells. The format is cell-based, human. The conditions noted are these: 100 µM, MTT and PI assays. In general terms: Tetrazolium assays rely on reduction of a dye to a coloured formazan, in cell work by metabolically active cells.
Data set [4] addresses T3, human soluble epoxide hydrolase (hsEH) (Homo sapiens, UniProt P34913).
T3 sequence (P34913 1-555): T2 sequence (P34913 1-555)
The experiment in a line: sEH immunoblotting in HEK293 cells. The format is cell-based. The conditions noted are these: HEK293, 4 h treatment, 10-fold titration 10 nM to 10 µM. (In general: Immunoblotting shows a protein as a band on a membrane.)

Data set [5] deals with paclitaxel-induced tactile allodynia. The experiment in a line: Paclitaxel-induced neuropathic pain, mechanical allodynia. The format is in vivo, female WT-CD1 mice.
The nature of data set [6]: Pharmacokinetic study in plasma and brain, subcutaneous. The class given is in vivo, male CD1 mice. Conditions: for AUC: male CD1 mice, 5 mg/kg single dose s.c.
The mark [7] stands for this setting: male, CD1, mouse, plasma, sc, 5 mg/kg.

Chain of CYP2C9 (P11712 whole entry): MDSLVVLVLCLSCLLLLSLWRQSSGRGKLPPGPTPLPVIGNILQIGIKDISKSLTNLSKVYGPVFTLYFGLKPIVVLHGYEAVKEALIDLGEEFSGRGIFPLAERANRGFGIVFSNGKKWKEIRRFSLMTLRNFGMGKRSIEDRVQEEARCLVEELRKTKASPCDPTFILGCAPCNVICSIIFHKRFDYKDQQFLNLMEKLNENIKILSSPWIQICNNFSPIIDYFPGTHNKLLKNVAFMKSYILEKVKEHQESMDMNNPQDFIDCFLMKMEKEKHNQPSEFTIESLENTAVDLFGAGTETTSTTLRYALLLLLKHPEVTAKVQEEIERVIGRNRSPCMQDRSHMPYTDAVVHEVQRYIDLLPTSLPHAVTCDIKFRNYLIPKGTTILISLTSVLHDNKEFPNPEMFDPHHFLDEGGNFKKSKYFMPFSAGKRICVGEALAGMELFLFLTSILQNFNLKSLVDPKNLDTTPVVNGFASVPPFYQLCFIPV
Chain of CYP2D6 (P10635 whole entry): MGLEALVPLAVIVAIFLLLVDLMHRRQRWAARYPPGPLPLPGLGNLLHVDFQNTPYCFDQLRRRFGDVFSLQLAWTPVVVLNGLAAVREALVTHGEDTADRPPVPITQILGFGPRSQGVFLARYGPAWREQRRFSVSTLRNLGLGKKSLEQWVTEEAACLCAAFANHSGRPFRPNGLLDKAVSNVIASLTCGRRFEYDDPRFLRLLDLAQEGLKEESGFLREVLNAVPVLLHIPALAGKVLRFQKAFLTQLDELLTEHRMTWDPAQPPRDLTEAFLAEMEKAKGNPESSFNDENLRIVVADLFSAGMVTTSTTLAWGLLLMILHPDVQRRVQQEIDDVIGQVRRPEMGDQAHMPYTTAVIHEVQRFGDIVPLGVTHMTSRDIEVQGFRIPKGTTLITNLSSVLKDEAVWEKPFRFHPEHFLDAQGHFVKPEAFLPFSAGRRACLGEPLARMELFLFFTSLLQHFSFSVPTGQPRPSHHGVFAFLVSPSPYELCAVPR
Chain of CYP3A4 (P08684 whole entry): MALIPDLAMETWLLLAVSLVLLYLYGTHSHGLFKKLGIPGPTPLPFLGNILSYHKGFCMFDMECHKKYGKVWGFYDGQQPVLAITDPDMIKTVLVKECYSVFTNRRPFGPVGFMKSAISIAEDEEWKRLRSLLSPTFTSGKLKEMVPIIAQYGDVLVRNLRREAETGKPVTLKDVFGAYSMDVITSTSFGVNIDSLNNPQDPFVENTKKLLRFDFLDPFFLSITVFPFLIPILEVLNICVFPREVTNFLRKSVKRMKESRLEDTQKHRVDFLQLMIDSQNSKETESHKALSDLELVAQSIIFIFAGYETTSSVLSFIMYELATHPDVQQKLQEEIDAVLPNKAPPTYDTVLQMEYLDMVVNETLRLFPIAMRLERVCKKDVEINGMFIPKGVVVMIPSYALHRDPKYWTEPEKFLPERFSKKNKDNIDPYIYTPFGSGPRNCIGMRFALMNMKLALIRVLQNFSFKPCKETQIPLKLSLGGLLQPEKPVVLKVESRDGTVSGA
Chain of hERG (Q12809 whole entry): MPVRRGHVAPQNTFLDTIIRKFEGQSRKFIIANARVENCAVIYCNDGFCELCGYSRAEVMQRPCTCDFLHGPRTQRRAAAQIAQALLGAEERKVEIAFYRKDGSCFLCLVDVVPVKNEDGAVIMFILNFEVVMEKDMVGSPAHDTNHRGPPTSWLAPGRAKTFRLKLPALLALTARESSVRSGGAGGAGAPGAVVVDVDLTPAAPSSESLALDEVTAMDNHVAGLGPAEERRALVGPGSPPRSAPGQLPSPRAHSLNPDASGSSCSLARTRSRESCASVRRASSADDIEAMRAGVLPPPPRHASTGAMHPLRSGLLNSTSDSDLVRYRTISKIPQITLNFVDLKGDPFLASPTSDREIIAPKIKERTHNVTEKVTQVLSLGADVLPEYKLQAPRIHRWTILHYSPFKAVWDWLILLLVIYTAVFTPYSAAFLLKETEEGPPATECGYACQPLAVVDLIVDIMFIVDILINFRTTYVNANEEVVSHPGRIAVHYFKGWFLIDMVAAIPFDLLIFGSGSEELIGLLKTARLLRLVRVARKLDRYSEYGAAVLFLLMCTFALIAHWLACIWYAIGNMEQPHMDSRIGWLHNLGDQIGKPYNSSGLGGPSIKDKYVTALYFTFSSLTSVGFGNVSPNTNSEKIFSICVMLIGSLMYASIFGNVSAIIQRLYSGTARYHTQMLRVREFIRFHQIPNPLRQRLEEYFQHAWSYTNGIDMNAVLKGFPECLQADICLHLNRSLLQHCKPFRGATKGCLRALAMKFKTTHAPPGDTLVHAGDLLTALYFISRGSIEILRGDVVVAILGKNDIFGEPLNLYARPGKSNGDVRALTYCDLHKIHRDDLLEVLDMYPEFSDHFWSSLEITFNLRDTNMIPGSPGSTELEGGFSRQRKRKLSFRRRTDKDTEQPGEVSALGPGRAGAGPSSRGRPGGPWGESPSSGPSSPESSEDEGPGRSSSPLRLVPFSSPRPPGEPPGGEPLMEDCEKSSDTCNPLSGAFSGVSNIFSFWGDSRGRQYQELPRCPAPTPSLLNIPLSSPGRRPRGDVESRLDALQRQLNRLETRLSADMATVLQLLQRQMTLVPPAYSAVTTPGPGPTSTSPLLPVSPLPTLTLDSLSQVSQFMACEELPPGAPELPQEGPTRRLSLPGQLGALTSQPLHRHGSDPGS

As for `CC(=O)N1CCC(NC(=O)NC23CC4CC(C)(CC(C2)c2c(F)cccc24)C3)CC1` (stereo not drawn) [Compound 13, 1-(1-Acetylpiperidin-4-yl)-3–(1-fluoro-9-methyl-5,6,8,9,10,11-hexahydro-7H-5,9:7,11-dimethanobenzo[9]annulen-7-yl)urea], the “Microsomal stability Human, percentage of remaining compound” value in data set [1] is given as 16%. Besides, on murine sEH, inhibition was half-maximal at 0.8 nM (IC50). In addition, the inhibition (as a rule, the drop in the measured response relative to a control, in per cent) at 10 µM against CYP3A4 was determined as 9 ± 3%; against CYP2C9, 6 ± 3%; on CYP2D6 it was 1 ± 2%. For the same compound, the “Microsomal stability Mouse, percentage of remaining compound” value in [2] worked out at 1%. The PAMPA-BBB entry in data set [3] is “CNS +”.
On to `CC(=O)N1CCC(NC(=O)NC23CC4CC(C)(CC(C2)c2cc(F)ccc24)C3)CC1` (stereo not drawn) [Compound 14, 1-(1-Acetylpiperidin-4-yl)-3–(2-fluoro-9-methyl-5,6,8,9,10,11-hexahydro-7H-5,9:7,11-dimethanobenzo[9]annulen-7-yl)urea], for which the “Microsomal stability Human, percentage of remaining compound” value in data set [1] turned out to be 22%. Inhibition against murine sEH was half-maximal at 0.6 nM (IC50). The inhibition at 10 µM was found to be 13 ± 3% against CYP3A4, 12 ± 2% against CYP2C9 and 5 ± 2% at CYP2D6. In [2], the “Microsomal stability Mouse, percentage of remaining compound” value is recorded as 4%. Besides, the PAMPA-BBB result in [3] is reported as “CNS +”.
Take `COc1ccc2c(c1)C1CC3(C)CC2CC(NC(=O)NC2CCN(C(C)=O)CC2)(C1)C3` (stereo not drawn) [Compound 15, 1-(1-Acetylpiperidin-4-yl)-3–(2-methoxy-9-methyl-5,6,8,9,10,11-hexahydro-7H-5,9:7,11-dimethanobenzo[9]annulen-7-yl)urea]: the “Microsomal stability Human, percentage of remaining compound” value in data set [1] is 33%. In addition, inhibition at murine sEH was half-maximal at 1.7 nM (IC50). Besides, the values for the inhibition at 10 µM at CYP3A4, at CYP2C9 and on CYP2D6 were 12 ± 4%, 12 ± 3% and 8 ± 2%, respectively. Besides, in data set [2], the “Microsomal stability Mouse, percentage of remaining compound” value is reported as 32%.
Regarding `CC(=O)c1ccc2c(c1)C1CC3(C)CC2CC(NC(=O)NC2CCN(C(C)=O)CC2)(C1)C3` (stereo not drawn) [Compound 16, 1-(2-Acetyl-9-methyl-5,6,8,9,10,11-hexahydro-7H-5,9:7,11-dimethanobenzo[9]annulen-7-yl)-3–(1-acetylpiperidin-4-yl)urea], in [1], the “Microsomal stability Human, percentage of remaining compound” value was found to be 92%. Besides, the figures for the IC50 against murine sEH and at human sEH were 6.7 nM and 4.1 nM, respectively. Also, the values for the inhibition at 10 µM at CYP3A4, against CYP2C9 and at CYP2D6 were 3 ± 2%, 9 ± 3% and 7 ± 2%, respectively. Further, in data set [2], the “Microsomal stability Mouse, percentage of remaining compound” value is given as 70%.
As to `CC(=O)N1CCC(NC(=O)NC23CC4CC(C)(CC(C2)c2cc([N+](=O)[O-])ccc24)C3)CC1` (stereo not drawn) [Compound 17, 1-(1-Acetylpiperidin-4-yl)-3–(9-methyl-2-nitro-5,6,8,9,10,11-hexahydro-7H-5,9:7,11-dimethanobenzo[9]annulen-7-yl)urea], the “Microsomal stability Human, percentage of remaining compound” value in data set [1] stood at 100%. Further, the IC50 against murine sEH and against human sEH was 4.5 nM throughout. Also, the inhibition at 10 µM on CYP3A4 turned out to be 10 ± 1%; against CYP2C9, 20 ± 4%; against CYP2D6, 8 ± 3%. The “Microsomal stability Mouse, percentage of remaining compound” value in [2] was found to be 27%.
Take `CC(=O)N1CCC(NC(=O)NC23CC4CC(C)(CC(C2)c2cc(N)ccc24)C3)CC1` (stereo not drawn) [Compound 18, 1-(1-Acetylpiperidin-4-yl)-3–(2-amino-9-methyl-5,6,8,9,10,11-hexahydro-7H-5,9:7,11-dimethanobenzo[9]annulen-7-yl)urea]: the IC50 (usually the midpoint of a concentration-inhibition curve) on murine sEH was found to be 17.1 nM; at human sEH it was 25 nM.
Take `COc1cc2c(cc1OC)C1CC3(C)CC2CC(NC(=O)NC2CCN(C(C)=O)CC2)(C1)C3` [Compound 19, 1-(1-Acetylpiperidin-4-yl)-3–(2,3-dimethoxy-9-methyl-5,6,8,9,10,11-hexahydro-7H-5,9:7,11-dimethanobenzo[9]annulen-7-yl)urea]: the “Microsomal stability Human, percentage of remaining compound” value in data set [1] was 100%. The IC50 turned out to be 2.2 nM against murine sEH and 1.3 nM against human sEH. The inhibition at 10 µM was 15 ± 4% against CYP3A4, 8 ± 1% at CYP2C9 and 2 ± 2% against CYP2D6. The “Microsomal stability Mouse, percentage of remaining compound” value in data set [2] came to 70%.
Take `COc1cc2c(cc1OC)C1CC3(C)CC2CC(NC(=O)NC2CCN(C(=O)C4CCOCC4)CC2)(C1)C3` [Compound 20, 1-(2,3-Dimethoxy-9-methyl-5,6,8,9,10,11-hexahydro-7H-5,9:7,11-dimethanobenzo[9]annulen-7-yl)-3–(1-(tetrahydro-2H-pyran-4-carbonyl)piperidin-4-yl)urea]: the “Microsomal stability Human, percentage of remaining compound” value in data set [1] worked out at 80%. For the same compound, the figures for the IC50 against murine sEH and on human sEH were 1.9 nM and 0.4 nM, respectively. The results for the inhibition at 10 µM on CYP3A4, against CYP2C9 and on CYP2D6 were 43 ± 1%, 22 ± 2% and 36 ± 5%, respectively. In addition, the inhibition at 30 min, 10 µM against hERG was determined as 11 ± 2%. The “Microsomal stability Mouse, percentage of remaining compound” value in data set [2] is 96%.
As to `COc1cc2c(cc1OC)C1CC3(F)CC2CC(NC(=O)NC2CCN(C(=O)C4CCOCC4)CC2)(C1)C3` [Compound 21, 1-(9-Fluoro-2,3-dimethoxy-5,6,8,9,10,11-hexahydro-7H-5,9:7,11-dimethanobenzo[9]annulen-7-yl)-3–(1-(tetrahydro-2H-pyran-4-carbonyl)piperidin-4-yl)urea], in data set [1], the “Microsomal stability Human, percentage of remaining compound” value is on record as 100%. The “Cytotoxicity at the highest concentration tested” value with SH-SY5Y cells is “not cytotoxic”. The compound further returned an IC50 against murine sEH of 2.9 nM. The “hsEH protein levels (degradation)” value in data set [4] is reported as “No significant degradation was observed”. Further, the inhibition at 10 µM stood at 1 ± 1% on CYP3A4, 8 ± 1% at CYP2C9 and 15 ± 4% at CYP2D6. The inhibition at 30 min, 10 µM on hERG was found to be 9 ± 1%. The “Microsomal stability Mouse, percentage of remaining compound” value in data set [2] was determined as 86%. The “Prevention of development of paclitaxel-induced neuropathic pain” value in data set [5] (5 mg/kg s.c. 30 min before each paclitaxel dose, tested at 10, 14, 21 days) is “showed no signs of sensory hypersensitivity at any time point tested”. Further, the “Dose achieving full / maximum antiallodynic effect” value in [5] (s.c., paclitaxel-treated mice) is 5 mg/kg. The “Time of peak / maximum antiallodynic effect after administration” value in [5] (s.c., paclitaxel-treated mice) worked out at 90 min. In addition, in data set [3], the PAMPA-BBB entry was “CNS −”. Further, the “Compound level in brain samples” value in data set [6] (5 mg/kg s.c., multiple time points 0.08–18 h) is “undetectable in all brain samples”. Also, in data set [6] (setting [7]), the Cmax (in general, the maximum level reached in the sampled fluid or tissue) amounted to 1600 ng/mL. The Tmax – broadly, the time at which the peak concentration occurs – in data set [6] (setting [7]) is 2 h. Moreover, the AUC (commonly concentration integrated over time) in data set [6] (male, CD1, mouse, plasma, sc, 5 mg/kg, AUC^inf) stood at 5600 ng·h/mL; in [6] (male, CD1, mouse, plasma, sc, 5 mg/kg, AUC^last), 5500 ng·h/mL.
On to `C#CCOc1ccccc1CCCCCC(=O)NS(C)(=O)=O` [MS-PPOH, N-methanesulfonyl-6–(2-proparyloxyphenyl)hexanamide, reference compound], for which the “Effect on paclitaxel-induced tactile allodynia (alone)” value in [5] (20 mg/kg s.c., day 10 after paclitaxel) is “did not alter paclitaxel-induced tactile allodynia”. In addition, the “Effect of MS-PPOH on the antiallodynic effect of 21” value in [5] (MS-PPOH 20 mg/kg s.c. 5 min before 21 5 mg/kg s.c., measured at 90 min) was “fully abolished the effect of compound 21”.
For the compound `NCC1(CC(=O)O)CCCCC1` [gabapentin, reference compound], the “Dose achieving full / maximum antiallodynic effect” value in data set [5] (s.c., paclitaxel-treated mice) is 20 mg/kg.
